The structures appear in SMILES notation.

Usually Km stands for the concentration of substrate that gives half-maximal velocity.

This assay has as its system T1, ASNase (L-asparaginase) from Bacillus licheniformis KKU-KH14.
T1 construct: gene ansZ
As to conditions: L-asparagine 0.0-0.1 M; standard assay Tris-HCl pH 7.4, 30 min; temperature of the kinetic assay not stated.

`NC(=O)C[C@H](N)C(=O)O` [L-asparagine]: the Km worked out at 50 mM.

These data come from article PMC6403232, “Production and Anticancer Activity of an L-Asparaginase from Bacillus licheniformis Isolated from the Red Sea, Saudi Arabia” (Scientific Reports, 2019).
